Results reported in ChEMBL document CHEMBL3045680, “Synthesis and Herbicidal Activity of 4-Thiazolone Derivatives and Their Effect on Plant Secretory Pathway” (J Pestic Sci, 2003).
The source made the active and inactive calls. No cut-off for these calls is given here.

Assays:
[1] = system: Schoenoplectiella juncoides; assay: Post-emergence herbicidal activity against Schoenoplectiella juncoides assessed as weed killing at 2 kg ai/ha measured 30 days after compound treatment under green house conditions; type: functional
[2] = system: Echinochloa oryzicola; assay: Pre-emergence herbicidal activity against Echinochloa oryzicola assessed as weed killing at 2 kg ai/ha measured 30 days after compound treatment under green house conditions; type: functional
[3] = system: Echinochloa oryzicola; assay: Post-emergence herbicidal activity against Echinochloa oryzicola assessed as weed killing at 2 kg ai/ha measured 30 days after compound treatment under green house conditions; type: functional
[4] = system: Schoenoplectiella juncoides; assay: Pre-emergence herbicidal activity against Schoenoplectiella juncoides assessed as weed killing at 2 kg ai/ha measured 30 days after compound treatment under green house conditions; type: functional
[5] = system: Oryza sativa; assay: Post-emergence phytotoxicity against Oryza sativa (rice) plants exposed to compound applied on surface of water 7 days after transplantation assessed as plant killing at 0.5 kg ai/ha measured 3 weeks after compound treatment under green house conditions; type: organism-based; details: other, 504 h
[6] = system: Echinochloa oryzicola; assay: Post-emergence herbicidal activity against Echinochloa oryzicola assessed as weed killing at 0.5 kg ai/ha measured 30 days after compound treatment under green house conditions; type: functional
[7] = system: Echinochloa oryzicola; assay: (§1) Induction of plant secretory pathway perturbations in Echinochloa oryzicola seedlings root tips area exposed to 10 uM compound 3 days after sowing assessed as induction of vesicles accumulation at plasma membrane-cell wall interface measured after 4 hr days post compound treatment by electron microscopy; type: functional, organism-based
[8] = system: Cyperus serotinus; assay: Herbicidal activity against Cyperus serotinus assessed as compound application rate causing complete weed control measured 30 days after compound treatment under green house conditions; type: functional
[9] = system: Echinochloa oryzicola; assay: Induction of plant secretory pathway perturbations in Echinochloa oryzicola seedlings exposed to 10 uM compound 3 days after sowing assessed as induction of accumulation of dense vesicles around root tip golgi apparatus measured after 4 hr days post compound treatment by electron microscopy; type: functional, organism-based
[10] = system: Echinochloa oryzicola; assay: Induction of plant secretory pathway perturbations in Echinochloa oryzicola seedlings exposed to 10 uM compound 3 days after sowing assessed as induction of morphological changes in root tip golgi apparatus measured after 4 hr days post compound treatment by electron microscopy; type: functional, organism-based
[11] = system: Rotala indica; assay: Herbicidal activity against Rotala indica assessed as compound application rate causing complete weed control measured 30 days after compound treatment under green house conditions; type: functional
[12] = system: Echinochloa oryzicola; assay: Induction of plant secretory pathway perturbations in Echinochloa oryzicola seedlings exposed to 10 uM compound 3 days after sowing assessed as induction of cytological changes in root apical tip area measured after 4 to 8 hr days post compound treatment by electron microscopy; type: functional, organism-based
[13] = system: Echinochloa oryzicola; assay: Herbicidal activity against Echinochloa oryzicola assessed as compound application rate causing complete weed control measured 30 days after compound treatment under green house conditions; type: functional
[14] = system: Echinochloa oryzicola; assay: Inhibition of shoot growth of Echinochloa oryzicola seedlings exposed to 10 uM compound immediately after sowing measured after 2 days post compound treatment; type: functional, organism-based
[15] = system: Echinochloa oryzicola; assay: Induction of necrotic symptoms in root tip of Echinochloa oryzicola seedlings exposed to 10 uM compound measured after 24 to 72 hr days post compound treatment; type: functional, organism-based
[16] = system: Echinochloa oryzicola; assay: Induction of plant secretory pathway perturbations in Echinochloa oryzicola seedlings root tips area exposed to 10 uM compound 3 days after sowing assessed as induction of low electron dense area at membrane-cell wall interface measured after 4 hr days post compound treatment by electron microscopy; type: functional, organism-based
[17] = system: Pontederia vaginalis; assay: Herbicidal activity against Monochoria vaginalis assessed as compound application rate causing complete weed control measured 30 days after compound treatment under green house conditions; type: functional
[18] = system: Lindernia procumbens; assay: Herbicidal activity against Lindernia procumbens assessed as compound application rate causing complete weed control measured 30 days after compound treatment under green house conditions; type: functional
[19] = system: Schoenoplectiella juncoides; assay: Herbicidal activity against Schoenoplectiella juncoides assessed as compound application rate causing complete weed control measured 30 days after compound treatment under green house conditions; type: functional
[20] = system: Echinochloa oryzicola; assay: as §1, with “8” for “4”; type: functional, organism-based
[21] = system: Echinochloa oryzicola; assay: Inhibition of root growth of Echinochloa oryzicola seedlings exposed to 10 uM compound 3 days after sowing measured after 24 to 72 hr days post compound treatment; type: functional, organism-based
[22] = system: Echinochloa oryzicola; assay: Induction of plant secretory pathway perturbations in Echinochloa oryzicola seedlings root tips area exposed to 10 uM compound 3 days after sowing assessed as induction of obscuring of cell wall measured after 4 hr days post compound treatment by electron microscopy; type: functional, organism-based
[23] = system: Echinochloa oryzicola; assay: Induction of plant secretory pathway perturbations in Echinochloa oryzicola seedlings root tips area exposed to 10 uM compound 3 days after sowing assessed as induction of curved cell wall membrane-cell wall interface measured after 8 hr days post compound treatment by electron microscopy; type: functional, organism-based
[24] = system: Echinochloa oryzicola; assay: Induction of plant secretory pathway perturbations in Echinochloa oryzicola seedlings root tips area exposed to 10 uM compound 3 days after sowing assessed as induction of curved cell wall membrane-cell wall interface measured after 4 hr days post compound treatment by electron microscopy; type: functional, organism-based
[25] = system: Echinochloa oryzicola; assay: Inhibition of shoot growth of Echinochloa oryzicola seedlings exposed to 10 uM compound 3 days after sowing measured after 24 to 72 hr days post compound treatment; type: functional, organism-based
[26] = system: Echinochloa oryzicola; assay: Inhibition of root growth of Echinochloa oryzicola seedlings exposed to 10 uM compound immediately after sowing measured after 3 days post compound treatment; type: functional, organism-based
[27] = system: Echinochloa oryzicola; assay: Induction of plant secretory pathway perturbations in Echinochloa oryzicola seedlings root tips area exposed to 10 uM compound 3 days after sowing assessed as induction of endoplasmic reticulum swellings measured after 4 hr days post compound treatment by electron microscopy; type: functional, organism-based

CN(C1=NC(=O)C(C)(C)S1)c1ccccc1
Activity [1]: 60%
Activity [2]: 90%
Activity [3]: 80%
Activity [4]: 80%

CCN(C1=NC(=O)C(C)(C)S1)c1ccccc1
Activity [1]: 20%
Activity [2]: 80%
Activity [3]: 60%
Activity [4]: 80%

CC1CCc2ccccc2N1C1=NC(=O)C(C)(C)S1 (stereo not given)
Activity [1]: 80%
Activity [2]: 90%
Activity [3]: 90%
Activity [4]: 90%

CCC1(C)SC(N2c3ccccc3OCC2C)=NC1=O (stereo not given)
Activity [5]: 0%
Activity [6]: 60%
Activity [3]: 100%

CCC1(CCl)SC(N2c3ccccc3OCC2C)=NC1=O (stereo not given)
Activity [5]: 20%
Activity [6]: 50%
Activity [3]: 100%

CC1(C)SC(N2CCCc3ccccc32)=NC1=O
Activity [1]: 60%
Activity [2]: 90%
Activity [3]: 90%
Activity [4]: 90%

CC1(C)SC(N2CCOc3ccccc32)=NC1=O
Activity [1]: 40%
Activity [2]: 90%
Activity [3]: 90%
Activity [4]: 80%

CN(Cc1ccccc1)C1=NC(=O)C(C)(C)S1
Activity [1]: 0%
Activity [2]: 20%
Activity [3]: 0%
Activity [4]: 40%

CCC1(CC)SC(N2c3ccccc3OCC2C)=NC1=O (stereo not given)
Activity [5]: 0%
Activity [6]: 70%
Activity [3]: 100%

CC1(C)SC(N2CCc3ccccc32)=NC1=O
Activity [1]: 20%
Activity [2]: 80%
Activity [3]: 80%
Activity [4]: 80%

CCCC1(C)SC(N(C)c2ccccc2)=NC1=O (stereo not given)
Activity [1]: 20%
Activity [2]: 80%
Activity [3]: 70%
Activity [4]: 80%

CCCCN(C)C1=NC(=O)C(C)(C)S1
Activity [1]: 0%
Activity [2]: 0%
Activity [3]: 0%
Activity [4]: 0%

CC1(C)SC(Nc2ccccc2)=NC1=O
Activity [1]: 60%
Activity [2]: 80%
Activity [3]: 60%
Activity [4]: 80%

CN(C1=NC(=O)C(C)(CCCl)S1)c1ccccc1 (stereo not given)
Activity [1]: 80%
Activity [2]: 80%
Activity [3]: 100%
Activity [4]: 90%

CC1COc2ccccc2N1C1=NC(=O)C(C)(C)S1 (stereo not given)
Activity [1]: 80%
Activity [2]: 100%
Activity [5]: 20%
Activity [6]: 60%
Activity [3]: 100%
Activity [4]: 100%

CCC1(CCCl)SC(N2c3ccccc3OCC2C)=NC1=O (stereo not given)
Activity [5]: 0%
Activity [6]: 60%
Activity [3]: 100%

CCC1(C)SC(N(C)c2ccccc2)=NC1=O (stereo not given)
Activity [1]: 40%
Activity [2]: 80%
Activity [3]: 80%
Activity [4]: 90%

CC1COc2ccccc2N1C1=NC(=O)C(C)(CCCl)S1 (stereo not given)
Activity [7]: Active
Activity [8]: 0.25 KgAi/ha
Activity [9]: Active
Activity [10]: Active
Activity [11]: 0.25 KgAi/ha
Activity [12]: Active
Activity [13]: 0.25 KgAi/ha
growth inhibition (GI) [14]: Active
Activity [15]: Active
Activity [16]: Active
Activity [17]: 0.25 KgAi/ha
Activity [18]: 0.25 KgAi/ha
Activity [19]: 0.25 KgAi/ha
Activity [20]: Active
growth inhibition (GI) [21]: Active
Activity [5]: 0%
Activity [6]: 70%
Activity [22]: Active
Activity [23]: Active
Activity [24]: Active
growth inhibition (GI) [25]: inactive
Activity [3]: 80%
growth inhibition (GI) [26]: Active
Activity [27]: Active

CC1SC(N(C)c2ccccc2)=NC1=O (stereo not given)
Activity [1]: 20%
Activity [2]: 20%
Activity [3]: 20%
Activity [4]: 20%

CCN(CC)C(=O)n1cnc(S(=O)(=O)c2c(C)cc(C)cc2C)n1 [CAFENSTROLE]
Activity [5]: 20%
Activity [6]: 80%

CN(C1=NC(=O)CS1)c1ccccc1
Activity [1]: 0%
Activity [2]: 0%
Activity [3]: 0%
Activity [4]: 0%
